Laboratory results reported in the NIST ThermoML archive (doi:10.1016/j.jct.2016.03.021).

Assay: wn = mass fraction of the nth substance listed
Settings: 353.15 K, Liquid; for mass density: Vibrating tube method; for viscosity: Falling or rolling sphere viscometry

CN(CCO)CCO [N-methyldiethanolamine] + O
Settings	mass density, w1 = 0.1 [kg/m3]	mass density, w1 = 0.2002 [kg/m3]	mass density, w1 = 0.3 [kg/m3]	mass density, w1 = 0.4 [kg/m3]	viscosity, w1 = 0.2002 [mPa·s]	viscosity, w1 = 0.3 [mPa·s]	viscosity, w1 = 0.4 [mPa·s]
10000 kPa	–	989.4	996.1	1002.3	–	–	–
15000 kPa	984.9	991.5	998.2	1004.4	–	–	–
20000 kPa	987	993.5	1000.3	1006.5	0.633	0.881	1.229
30000 kPa	991.2	997.6	1004.3	1010.5	0.64	0.894	1.253
40000 kPa	995.2	1001.6	1008.1	1014.4	0.647	0.907	1.276
50000 kPa	999.1	1005.5	1012	1018.2	–	–	–
60000 kPa	1003.1	1009.3	1015.9	1022	0.661	0.932	1.322
70000 kPa	1006.9	1012.9	1019.5	1025.6	–	–	–
80000 kPa	1010.5	1016.6	1023	1029.1	0.675	0.959	1.368
90000 kPa	1014	1020	1026.4	1032.6	–	–	–
100000 kPa	1017.7	1023.6	1029.9	1036	0.691	0.997	1.419
110000 kPa	1021.2	1027	1033.3	1039.3	–	–	–
120000 kPa	1024.6	1030.4	1036.6	1042.5	0.705	1.018	1.467
130000 kPa	1028	1033.6	1039.8	1045.8	–	–	–
140000 kPa	1031.2	1036.8	1042.9	1048.9	–	–	–
